From ChEMBL document CHEMBL1201862, “PubChem BioAssay data set” (2004)
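All cell lines were grown in 96-well plates and treated with compound for 48 hours. GI50 marks 50% less growth.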 The source made the active and inactive calls. Cut-off read from the data, not from the text of the source: active = GI50 up to about 1.1 µM and inactive = higher.

What was measured:
Experiment in all cases: NCI-60 cell line screen, 48 h
[1] = test system: A498
[2] = test system: BT-549
[3] = test system: CAKI-1
[4] = test system: COLO 205
[5] = test system: DU-145
[6] = test system: HT-29
[7] = test system: LOX IMVI
[8] = test system: M14
[9] = test system: MDA-N
[10] = test system: Malme-3M
[11] = test system: NCI-H226
[12] = test system: NCI-H460
[13] = test system: NCI-H522
[14] = test system: OVCAR-4
[15] = test system: OVCAR-5
[16] = test system: SK-MEL-28
[17] = test system: TK-10
[18] = test system: U-251
[19] = test system: SR

Measured: GI50

N#CC(N)c1ccc(OCCCCCCCCCCOc2ccc(C(N)C#N)cc2)cc1 (stereo not drawn)
inactive: [1] > 100 µM | [2] > 100 µM | [3] > 100 µM | [4] > 100 µM | [5] > 100 µM | [6] > 100 µM | [7] > 100 µM | [8] > 100 µM | [9] > 100 µM | [10] > 100 µM | [11] > 100 µM | [12] > 100 µM | [13] > 100 µM | [14] > 100 µM | [15] > 100 µM | [16] > 100 µM | [17] > 100 µM | [18] 65.3 µM

C=Cc1nc(C#N)c(N)o1
inactive: [1] > 100 µM | [2] > 100 µM | [3] > 100 µM | [4] > 100 µM | [5] > 100 µM | [6] > 100 µM | [7] > 100 µM | [8] > 100 µM | [9] > 100 µM | [10] > 100 µM | [11] > 100 µM | [12] > 100 µM | [13] > 100 µM | [14] > 100 µM | [15] > 100 µM | [16] > 100 µM | [17] > 100 µM | [18] > 100 µM

Cc1c(-c2ccccc2)n[nH]c1NC1(C)C(=O)N(/N=C/c2ccccc2)N=C1c1ccccc1 (stereo not drawn)
inactive: [1] > 83.4 µM | [2] > 100 µM | [3] > 100 µM | [4] > 30.5 µM | [5] > 100 µM | [6] > 100 µM | [7] > 100 µM | [8] > 87.3 µM | [9] 97.5 µM | [10] > 100 µM | [11] > 100 µM | [12] > 62.5 µM | [13] > 100 µM | [14] 31.8 µM | [15] > 100 µM | [16] > 100 µM | [17] > 100 µM | [18] > 33.6 µM

Cc1ccc(/C=C2\N=C(N3CCCC(CO)C3)NC2=O)cc1 (stereo not drawn)
inactive: [2] > 100 µM | [3] > 100 µM | [4] > 100 µM | [5] > 100 µM | [6] > 100 µM | [7] > 100 µM | [8] > 100 µM | [9] > 100 µM | [10] > 100 µM | [11] > 100 µM | [13] > 100 µM | [14] > 100 µM | [15] > 100 µM | [16] > 100 µM | [19] > 100 µM | [17] > 100 µM | [18] > 100 µM

CCC12CCCN(Cc3ccccc3)C1c1c([nH]c3ccccc13)C(C(=O)OC)C2 (stereo not drawn)
inactive: [2] > 10 µM | [3] > 10 µM | [4] > 10 µM | [5] > 10 µM | [6] 6.87 µM | [7] > 10 µM | [8] > 10 µM | [9] > 10 µM | [10] > 10 µM | [13] > 10 µM | [14] > 10 µM | [15] 7.89 µM | [16] > 10 µM | [19] 7.64 µM | [17] > 10 µM | [18] > 10 µM

C=C1[C@@H]([C@@]2(C)C=CC(=O)C(C)(C)[C@@H]2CC(=O)OC)CC[C@@]2(C)[C@H](c3ccoc3)OC(=O)[C@H]3O[C@]132 [ANDIROBIN]
inactive: [1] 79.4 µM | [2] > 100 µM | [3] > 100 µM | [4] 93.1 µM | [5] > 100 µM | [6] > 100 µM | [7] > 100 µM | [8] > 100 µM | [9] > 100 µM | [10] > 100 µM | [11] > 100 µM | [12] > 100 µM | [13] > 100 µM | [14] > 100 µM | [15] > 100 µM | [16] > 100 µM | [17] > 100 µM | [18] > 100 µM

NC(=S)Nc1ccc(S(=O)(=O)Nc2ccc(S(N)(=O)=O)cc2)cc1
inactive: [1] > 100 µM | [2] > 100 µM | [3] > 100 µM | [4] > 100 µM | [5] > 100 µM | [6] > 100 µM | [7] > 100 µM | [8] > 100 µM | [9] > 100 µM | [10] > 100 µM | [11] > 100 µM | [12] > 100 µM | [13] > 100 µM | [14] > 100 µM | [15] > 100 µM | [16] > 100 µM | [17] > 100 µM | [18] > 100 µM

S=C1Nc2cnc3ccccc3c2SC1c1ccccc1 (stereo not drawn)
inactive: [2] > 100 µM | [3] > 100 µM | [4] > 100 µM | [5] > 100 µM | [6] > 100 µM | [7] 97.5 µM | [8] > 100 µM | [9] > 100 µM | [10] > 100 µM | [11] > 100 µM | [12] > 100 µM | [13] > 100 µM | [14] > 100 µM | [15] > 100 µM | [16] 92.3 µM | [19] > 100 µM | [17] > 100 µM | [18] > 100 µM

COC(=O)Cc1cccc2c(=O)c(S(=O)(=O)NC(=O)Nc3ccc(Cl)cc3)c(-c3ccccc3)oc12
inactive: [2] 55.6 µM | [3] 24.3 µM | [4] 34.4 µM | [5] > 100 µM | [6] 74.5 µM | [7] 13.5 µM | [8] > 100 µM | [9] > 100 µM | [11] > 100 µM | [12] 32.7 µM | [13] 16.4 µM | [14] > 100 µM | [15] > 100 µM | [16] 34.6 µM | [19] 36.9 µM | [17] > 100 µM | [18] 50.6 µM

O=C(O)c1cc(O)nc(S)n1
inactive: [1] > 100 µM | [2] > 100 µM | [3] > 100 µM | [4] > 100 µM | [5] > 100 µM | [6] > 100 µM | [7] > 100 µM | [8] > 100 µM | [9] > 100 µM | [10] > 100 µM | [11] > 100 µM | [12] > 100 µM | [13] > 100 µM | [14] > 100 µM | [15] > 100 µM | [16] > 100 µM | [17] > 100 µM | [18] > 100 µM

N=C(N)NS(=O)(=O)c1ccc(NC(=O)c2cccc3c(NNc4ccc(S(N)(=O)=O)cc4)c4ccccc4nc23)cc1
inactive: [2] 74.5 µM | [3] > 100 µM | [4] > 100 µM | [5] > 100 µM | [6] 47 µM | [7] 20.4 µM | [8] > 100 µM | [9] > 100 µM | [10] 34.8 µM | [11] > 100 µM | [12] 83.4 µM | [13] 41.1 µM | [14] > 100 µM | [15] > 100 µM | [16] > 100 µM | [19] 35 µM | [17] > 100 µM | [18] 44.2 µM

COc1ccc(NCC(=O)Nn2c(C)nc3ccc(S(=O)(=O)Nc4ccc(OC)cc4)cc3c2=O)cc1
inactive: [2] > 100 µM | [3] > 100 µM | [4] > 100 µM | [5] > 100 µM | [6] > 100 µM | [7] > 100 µM | [8] > 100 µM | [9] > 100 µM | [10] > 100 µM | [11] > 100 µM | [12] > 100 µM | [13] > 100 µM | [14] > 100 µM | [15] > 100 µM | [16] > 100 µM | [19] > 100 µM | [17] > 100 µM | [18] > 100 µM

COc1c(-c2nc3ccc(N4CCN(C)CC4)nc3[nH]2)cc(OC)c2c1nc(CO)n2C
inactive: [2] > 100 µM | [3] > 100 µM | [4] 75.7 µM | [5] > 100 µM | [6] > 100 µM | [7] > 100 µM | [8] > 100 µM | [9] > 100 µM | [10] > 100 µM | [11] > 100 µM | [12] > 100 µM | [13] > 100 µM | [14] > 100 µM | [15] > 100 µM | [16] > 100 µM | [18] > 100 µM

Cc1[nH]c2ncn(N)c(=N)c2c1Cc1ccccc1
inactive: [1] > 100 µM | [2] > 100 µM | [3] > 100 µM | [4] > 100 µM | [6] 67.9 µM | [7] 67.1 µM | [8] > 100 µM | [9] 35.3 µM | [10] 6.76 µM | [11] > 100 µM | [13] 49.2 µM | [14] > 100 µM | [15] > 100 µM | [16] > 100 µM | [19] > 100 µM | [17] > 100 µM | [18] > 100 µM

NCC(=O)N1CCN(c2nc(N3CCCC3)c3nc(Cl)c(NCc4ccccc4)nc3n2)CC1
inactive: [2] 2.09 µM | [3] 2.44 µM | [4] 1.7 µM | [5] 2.41 µM | [6] 1.91 µM | [7] 1.78 µM | [8] 1.72 µM | [9] 1.82 µM | [10] 2.15 µM | [11] 3.66 µM | [12] 1.85 µM | [13] 1.78 µM | [14] 2.15 µM | [15] 2.91 µM | [16] 2.23 µM | [19] 1.56 µM | [17] 1.9 µM | [18] 1.71 µM
